Source: patent US11214594B2, “Antimicrobial peptide having synergistic antibacterial effect with antibiotics on multidrug resistant bacteria, and use thereof” (priority 2016, dated 2022)
In brackets after ≈: the same amount, converted by molar mass. Where a SMILES comes first, the peptide text is derived from it. [ ]: non-standard residue; d: D form.

What was measured:
MRSA 3114 = type: cell-based, Staphylococcus aureus; conditions: 3114
Procedure, shortened: (§1)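 Broth microdilution in MH medium: strains diluted to 2×10^6 CFU were mixed with equal volumes of twofold serial peptide dilutions in MH medium. MIC was taken as the lowest peptide concentration preventing bacterial growth.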

MRSA 3126 = type: cell-based, Staphylococcus aureus; conditions: 3126
Procedure, shortened: as §1

[1] = system: multi-drug resistant bacteria; experiment: MIC, summary statements for multi-drug resistant bacteria; type: cell-based
Procedure, shortened: as §1

S. aureus = experiment: microbe, parasite or virus in culture; type: cell-based, Staphylococcus aureus
Procedure, shortened: as §1

S. typhimurium = experiment: microbe, parasite or virus in culture; type: cell-based, Salmonella typhimurium
Procedure, shortened: as §1

MDRST 8007 = experiment: Minimal inhibitory concentration (MIC), single agent; type: cell-based, Salmonella typhimurium; conditions: agent alone
Procedure, shortened: as §1

E. coli [2] = experiment: microbe, parasite or virus in culture; type: cell-based, Escherichia coli; conditions: 16 h
Procedure, shortened: as §1

MDREC 1229 = experiment: microbe, parasite or virus in culture; type: cell-based, Escherichia coli
Procedure, shortened: as §1

B. subtilis = experiment: microbe, parasite or virus in culture; type: cell-based, Bacillus subtilis
Procedure, shortened: as §1

E. coli [3] = experiment: MIC of antibiotic during combined treatment with antimicrobial peptide; type: cell-based, Escherichia coli; conditions: for Synergistic effect of antibacterial activity with existing antibiotics compared with PapMA-1: E. coli and MDREC1229; for Antibiotic MIC, Erythromycin / Antibiotic MIC, Linezolid / Antibiotic MIC, Vancomycin: E. coli
Procedure, shortened: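 Antibiotic diluted in MH medium, dispensed per well with peptide; setup repeated with roles reversed; MIC read per combination.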

MDRAB 12035 = experiment: microbe, parasite or virus in culture; type: cell-based, Acinetobacter baumannii
Procedure, shortened: as §1

A. baumannii = experiment: microbe, parasite or virus in culture; type: cell-based, Acinetobacter baumannii; conditions: for Antibacterial activity relative to PapMA-1: A. baumannii and S. typhimurium
Procedure, shortened: as §1

MDRPA 2002 = type: cell-based, Pseudomonas aeruginosa
Procedure, shortened: as §1

[4] = erythromycin combined with peptide at 1 μg/ml
[5] = erythromycin combined with peptide at 2 μg/ml
[6] = erythromycin combined with peptide at 4 μg/ml
[7] = erythromycin combined with peptide at 6 μg/ml
[8] = erythromycin combined with peptide at 8 μg/ml
[9] = erythromycin combined with peptide at 16 μg/ml
[10] = erythromycin combined with peptide at 32 μg/ml
[11] = erythromycin combined with peptide at 64 μg/ml
[12] = linezolid combined with peptide at 1 μg/ml
[13] = linezolid combined with peptide at 2 μg/ml
[14] = linezolid combined with peptide at 4 μg/ml
[15] = linezolid combined with peptide at 6 μg/ml
[16] = linezolid combined with peptide at 8 μg/ml
[17] = linezolid combined with peptide at 16 μg/ml
[18] = linezolid combined with peptide at 32 μg/ml
[19] = linezolid combined with peptide at 64 μg/ml
[20] = vancomycin combined with peptide at 1 μg/ml
[21] = vancomycin combined with peptide at 2 μg/ml
[22] = vancomycin combined with peptide at 4 μg/ml
[23] = vancomycin combined with peptide at 6 μg/ml
[24] = vancomycin combined with peptide at 8 μg/ml
[25] = vancomycin combined with peptide at 16 μg/ml
[26] = vancomycin combined with peptide at 32 μg/ml
[27] = vancomycin combined with peptide at 64 μg/ml

CC[C@H](C)[C@H](NC(=O)[C@H](CCCCN)NC(=O)[C@H](Cc1c[nH]c2ccccc12)NC(=O)[C@@H](N)CCCNC(=N)N)C(=O)N[C@@H](Cc1ccccc1)C(=O)N[C@@H](CCCCN)C(=O)N[C@@H](CCCCN)C(=O)N[C@H](C(=O)N1CCC[C@H]1C(=O)N[C@@H](CCCCN)C(=O)N[C@@H](Cc1ccccc1)C(=O)N[C@@H](CC(C)C)C(=O)N[C@@H](Cc1c[nH]cn1)C(=O)N[C@@H](CCC(=O)O)C(=O)N[C@@H](C)C(=O)N[C@@H](CCCCN)C(=O)N[C@@H](CCCCN)C(=O)N[C@@H](Cc1c[nH]c2ccccc12)C(N)=O)[C@@H](C)CC [PapMA-14, RWK IFK KIP KFL HEA KKW-NH2] (H-RWKIFKKIPKFLHEAKKW-NH2; N-terminus assumed)
Minimal inhibitory concentration MIC (MRSA 3114): >128 µg/mL | Minimal inhibitory concentration MIC (MRSA 3126): >128 µg/mL | Antibacterial activity relative to PapMA-1 [1]: twice to four times higher | Minimal inhibitory concentration MIC (S. aureus): >128 µg/mL | Minimal inhibitory concentration MIC (S. typhimurium): 16 µg/mL (≈ 6.71 µM) | Minimal inhibitory concentration MIC (MDRST 8007): 16 µg/mL (≈ 6.71 µM) | Minimal inhibitory concentration MIC (E. coli [2]): 8 µg/mL (≈ 3.36 µM) | Minimal inhibitory concentration MIC (MDREC 1229): 16 µg/mL (≈ 6.71 µM) | Peptide MIC, peptide alone (MDREC 1229): 16 µg/mL | Minimal inhibitory concentration MIC (B. subtilis): >128 µg/mL | Synergistic effect of antibacterial activity with existing antibiotics compared with PapMA-1 (E. coli [3]): higher level than the PapMA-1 peptide | Antibiotic MIC, Erythromycin (E. coli [3]; [4]): 128 µg/mL | Antibiotic MIC, Erythromycin (E. coli [3]; [5]): 32 µg/mL | Antibiotic MIC, Erythromycin (E. coli [3]; [6]): 2 µg/mL | Antibiotic MIC, Erythromycin (E. coli [3]; [7]): 1 µg/mL | Antibiotic MIC, Erythromycin (E. coli [3]; [8]): 0 µg/mL | Antibiotic MIC, Erythromycin (E. coli [3]; [9]): 0 µg/mL | Antibiotic MIC, Erythromycin (E. coli [3]; [10]): 0 µg/mL | Antibiotic MIC, Erythromycin (E. coli [3]; [11]): 0 µg/mL | Antibiotic MIC, Linezolid (E. coli [3]; [12]): >128 µg/mL | Antibiotic MIC, Linezolid (E. coli [3]; [13]): 128 µg/mL | Antibiotic MIC, Linezolid (E. coli [3]; [14]): 8 µg/mL | Antibiotic MIC, Linezolid (E. coli [3]; [15]): 2 µg/mL | Antibiotic MIC, Linezolid (E. coli [3]; [16]): 0 µg/mL | Antibiotic MIC, Linezolid (E. coli [3]; [17]): 0 µg/mL | Antibiotic MIC, Linezolid (E. coli [3]; [18]): 0 µg/mL | Antibiotic MIC, Linezolid (E. coli [3]; [19]): 0 µg/mL | Antibiotic MIC, Vancomycin (E. coli [3]; [20]): >128 µg/mL | Antibiotic MIC, Vancomycin (E. coli [3]; [21]): 128 µg/mL | Antibiotic MIC, Vancomycin (E. coli [3]; [22]): 16 µg/mL | Antibiotic MIC, Vancomycin (E. coli [3]; [23]): 8 µg/mL | Antibiotic MIC, Vancomycin (E. coli [3]; [24]): 0 µg/mL | Antibiotic MIC, Vancomycin (E. coli [3]; [25]): 0 µg/mL | Antibiotic MIC, Vancomycin (E. coli [3]; [26]): 0 µg/mL | Antibiotic MIC, Vancomycin (E. coli [3]; [27]): 0 µg/mL | Minimal inhibitory concentration MIC (MDRAB 12035): 16 µg/mL (≈ 6.71 µM) | Peptide MIC, peptide alone (MDRAB 12035): 16 µg/mL | Minimal inhibitory concentration MIC (A. baumannii): 16 µg/mL (≈ 6.71 µM) | Peptide MIC, peptide alone (A. baumannii): 16 µg/mL | Antibacterial activity relative to PapMA-1 (A. baumannii): at least twice as high | Minimal inhibitory concentration MIC (MDRPA 2002): 64 µg/mL (≈ 26.9 µM)

CC[C@H](C)[C@H](NC(=O)[C@H](CCCCN)NC(=O)[C@H](Cc1c[nH]c2ccccc12)NC(=O)[C@@H](N)CCCNC(=N)N)C(=O)N[C@@H](Cc1ccccc1)C(=O)N[C@@H](CCCCN)C(=O)N[C@@H](CCCCN)C(=O)N[C@H](C(=O)N[C@H](CCCCN)C(=O)N[C@@H](CCCCN)C(=O)N[C@@H](CC(C)C)C(=O)N[C@@H](CC(C)C)C(=O)N[C@@H](Cc1c[nH]cn1)C(=O)N[C@@H](CCCCN)C(=O)N[C@@H](Cc1ccccc1)C(=O)N[C@@H](CCCCN)C(=O)N[C@@H](CCCCN)C(=O)N[C@@H](Cc1ccccc1)C(N)=O)[C@@H](C)CC [PapMA-17, RWK IFK KIk KLL HKF KKF-NH2] (H-RWKIFKKI[dK]KLLHKFKKF-NH2; N-terminus assumed)
Minimal inhibitory concentration MIC (MRSA 3114): >128 µg/mL | Minimal inhibitory concentration MIC (MRSA 3126): >128 µg/mL | Antibacterial activity relative to PapMA-1 [1]: twice to four times higher | Minimal inhibitory concentration MIC (S. aureus): >128 µg/mL | Minimal inhibitory concentration MIC (S. typhimurium): 32 µg/mL (≈ 13.2 µM) | Minimal inhibitory concentration MIC (MDRST 8007): 64 µg/mL (≈ 26.5 µM) | Minimal inhibitory concentration MIC (E. coli [2]): 16 µg/mL (≈ 6.62 µM) | Minimal inhibitory concentration MIC (MDREC 1229): 16 µg/mL (≈ 6.62 µM) | Peptide MIC, peptide alone (MDREC 1229): 16 µg/mL | Minimal inhibitory concentration MIC (B. subtilis): >128 µg/mL | Synergistic effect of antibacterial activity with existing antibiotics compared with PapMA-1 (E. coli [3]): higher level than the PapMA-1 peptide | Antibiotic MIC, Erythromycin (E. coli [3]; [4]): 128 µg/mL | Antibiotic MIC, Erythromycin (E. coli [3]; [5]): 16 µg/mL | Antibiotic MIC, Erythromycin (E. coli [3]; [6]): 8 µg/mL | Antibiotic MIC, Erythromycin (E. coli [3]; [7]): 2 µg/mL | Antibiotic MIC, Erythromycin (E. coli [3]; [8]): 1 µg/mL | Antibiotic MIC, Erythromycin (E. coli [3]; [9]): 0 µg/mL | Antibiotic MIC, Erythromycin (E. coli [3]; [10]): 0 µg/mL | Antibiotic MIC, Erythromycin (E. coli [3]; [11]): 0 µg/mL | Antibiotic MIC, Linezolid (E. coli [3]; [12]): >128 µg/mL | Antibiotic MIC, Linezolid (E. coli [3]; [13]): >128 µg/mL | Antibiotic MIC, Linezolid (E. coli [3]; [14]): 32 µg/mL | Antibiotic MIC, Linezolid (E. coli [3]; [15]): 16 µg/mL | Antibiotic MIC, Linezolid (E. coli [3]; [16]): 8 µg/mL | Antibiotic MIC, Linezolid (E. coli [3]; [17]): 0 µg/mL | Antibiotic MIC, Linezolid (E. coli [3]; [18]): 0 µg/mL | Antibiotic MIC, Linezolid (E. coli [3]; [19]): 0 µg/mL | Antibiotic MIC, Vancomycin (E. coli [3]; [20]): >128 µg/mL | Antibiotic MIC, Vancomycin (E. coli [3]; [21]): >128 µg/mL | Antibiotic MIC, Vancomycin (E. coli [3]; [22]): 128 µg/mL | Antibiotic MIC, Vancomycin (E. coli [3]; [23]): 32 µg/mL | Antibiotic MIC, Vancomycin (E. coli [3]; [24]): 16 µg/mL | Antibiotic MIC, Vancomycin (E. coli [3]; [25]): 0 µg/mL | Antibiotic MIC, Vancomycin (E. coli [3]; [26]): 0 µg/mL | Antibiotic MIC, Vancomycin (E. coli [3]; [27]): 0 µg/mL | Minimal inhibitory concentration MIC (MDRAB 12035): 32 µg/mL (≈ 13.2 µM) | Peptide MIC, peptide alone (MDRAB 12035): 32 µg/mL | Minimal inhibitory concentration MIC (A. baumannii): 32 µg/mL (≈ 13.2 µM) | Peptide MIC, peptide alone (A. baumannii): 32 µg/mL | Antibacterial activity relative to PapMA-1 (A. baumannii): at least twice as high | Minimal inhibitory concentration MIC (MDRPA 2002): 16 µg/mL (≈ 6.62 µM)
